Results: publication PMC10298530, “Synthesis and Anticancer Activity of A-Ring-Modified Derivatives of Dihydrobetulin” (International Journal of Molecular Sciences, 2023)
Like-named read-outs stand apart in the source and are kept apart here.

What was measured:
Type in all cases: cell-based, human
A549 = experiment: MTT cell viability assay, A549; details: for IC50: Homo sapiens
From the text: (§1) Blokhin National Medical Research Center of Oncology (the Ministry of Health of the Russian Federation, Moscow).

HBL-100 cells [1] = experiment: Western blotting of cytochrome c, cleaved caspase-9 and -8, HBL-100; details: 16 h, IC50
Protocol: (§2) The supernatant (cytosol fraction) and mitochondrial pellets were then collected, and protein concentration was determined by UV […] using 1–100 μg/mL BSA as standard curve concentrations (UV-2600i spectrophotometer; Shimadzu, Tokyo, Japan).
(§3) Then, the same protein amounts (20.0 µg in each lane) were loaded and separated by 4–20% Mini-PROTEAN TGX Stain-Free Protein Gels (Bio-Rad Laboratories, Hercules, CA, USA), followed by transferring onto polyvinylidene difluoride (PVDF) membranes. The membranes were blocked with 1% (w/v) casein in Tris-buffered saline containing 0.1% Tween-20 (TBS-T), and were incubated overnight with primary antibodies (1:1000) of Cytochrome c (D18C7) Rabbit mAb, Cleaved Caspase-9 (Asp330) (E5Z7N) Rabbit mAb, Cleaved Caspase-8 (Asp374) (18C8) Rabbit mAb, and β-Actin (D6A8) Rabbit mAb (Cell Signaling Technology, Danvers, MA, USA) for cytosol and mitohondrial fractions at 4 °C. The next day, the PVDF membranes were washed thrice in TBS-T and incubated with HRP-conjugated secondary antibodies (1:1000) (Cell Signaling Technology, Danvers, MA, USA) for 1 h at RT. Immunoreactive proteins were detected by Clarity Western ECL Substrate (Bio-Rad Laboratories, Hercules, CA, USA) and then analyzed on the ChemiDoc MP Imaging system (Bio-Rad Laboratories, Hercules, CA, USA). The proteins were quantified by densitometry using Image Lab software (version 6.0; Bio-Rad Laboratories, Hercules, CA, USA). To normalize protein expression data, a blot with β-Actin was used.

RD TE32 = experiment: MTT cell viability assay, RD TE32; details: for IC50: Homo sapiens
From the text: as §1

MS = experiment: MTT cell viability assay, MS; details: for IC50: Homo sapiens;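 on IC50 (mean ± SD): MS is a melanocyte cell line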
From the text: as §1

HBL-100/Dox cells = experiment: Western blotting of cytochrome c, cleaved caspase-9 and -8, HBL-100/Dox; details: 16 h, IC50
Protocol: as §2, §3

HEpG2 = experiment: MTT cell viability assay, HEpG2; details: for IC50: Homo sapiens
From the text: as §1

[2] = system: Active Caspase-3 in HBL-100/Dox cells; experiment: Flow cytometric analysis of active caspase-3, HBL-100/Dox; details: for gMIF, Active Caspase-3: 24 h
Protocol: The cells were detached with accutase (HiMedia Laboratories, Maharashtra, India) and then fixed with 70% ice cold ethanol followed by overnight incubation at 4 °C. The cells were washed twice with PBS, permeabilized using 0.1% Triton X-100 in PBS solution, and subsequently stained with 5 μL of the BD Horizon™ BV605 Rabbit Anti-Active Caspase-3 antibody (BD Biosciences, Franklin Lakes, NJ, USA). The cells were then washed, resuspended in PBS, and analyzed using a CytoFlex S flow cytometer (Beckman Coulter, Brea, CA, USA). Cell fluorescence was evaluated on a CytoFlex S flow cytometer (Beckman Coulter, Brea, CA, USA). The results were analyzed using FlowJo software (ver. X 10.0.7r2, FlowJo Software, San Jose, CA, USA) and represented as geometric mean fluorescence intensity (gMFI).

PC-3 = experiment: MTT cell viability assay, PC-3; details: for IC50: Homo sapiens
From the text: as §1

HBL-100 = experiment: MTT cell viability assay, HBL-100; details: for IC50: Homo sapiens
Protocol: The cells were cultured in a humidified CO2 incubator (model 460-CE; Thermo Fisher Scientific, Waltham, MA, USA) at +37 °C and 5% CO2.
The percentage of the viable cells was calculated according to the following equation: cell viability (%) = 100 × (mean absorbance in the treatment group/mean absorbance in the control group). The results were expressed pictorially using Prism 6.0 (GraphPad Software, Boston, MA, USA).

HBL-100 cells [3] = experiment: Hoechst 33342 / TMRE fluorescent microscopy, HBL-100
Protocol: The DNA marker, termed Hoechst 33342 Ready Flow Reagent, was used as a stock solution (Invitrogen, ThermoFisher Scientific, USA). The mitochondrial marker, LumiTracker Mito TMRE (tetramethylrhodamine, ethyl ester; Lumiprobe, Moscow, Russia), was dissolved in DMSO as 1.0 mM stock solution. The marker of reactive oxygen species, H2DCFDA (Lumiprobe, Moscow, Russia), was dissolved in DMSO as 100.0 μM stock solution. After incubation, the cells were incubated with FBS-free culture medium containing the dye mixture of Hoechst 33342 (final concentration 1.0 μM) and LumiTracker Mito TMRE (final concentration 1.0 μM), or H2DCFDA dye taken alone (final concentration 1.0 μM), for 30 min at 37 °C in darkness. Fluorescence, at 420 nm (Hoechst 33342), at 510 nm (TMRE), and at 575 nm (H2DCFDA), of the test cultures (including controls) was analyzed immediately using a fluorescence microscope CKX 53 (Olympus, Tokyo, Japan). The TMRE fluorescence intensity was quantified using Fiji (ImageJ).

For `COC(=O)[C@]12CC[C@@H](C(C)C)[C@@H]1[C@H]1CC[C@@H]3[C@@](C)(CCC#N)[C@H](C(=O)C(Br)Br)CC[C@@]3(C)[C@]1(C)CC2` [compound 31, 2-Cyano-24,24-dibromo-4-oxo-3,4-seco-3,23-dinorlupan-28-oic acid methyl ester], the IC50 (A549; A549, MTT, 72 h of treatment, read-out: IC50 Values (Mean ± SD)) was 7 ± 0.2 µM, the IC50 (A549; Table S1, A549, read-out: IC50 (mean ± SD)) was 7.01 ± 0.21 µM and the “Selectivity index (SI)” value (A549; ratio of IC50 values healthy (HEK293) / A549) was 1.64. The “activation of caspase-8” value (HBL-100 cells [1]) was “not observed”, the “activation of caspase-9” value (HBL-100 cells [1]) was “sequential activation of initiator caspase-9” and the “cytochrome c release” value (HBL-100 cells [1]) was “provoked the release of cytochrome c from mitochondria to cytosol”. For the same molecule, the IC50 (RD TE32; RD TE32, MTT, 72 h of treatment, read-out: IC50 Values (Mean ± SD)) was 0.7 ± 0.1 µM, the IC50 (RD TE32; Table S1, RD TE32, read-out: IC50 (mean ± SD)) was 0.66 ± 0.04 µM and the “Selectivity index (SI)” value (RD TE32; ratio of IC50 values healthy (HEK293) / RD TE32) was 16.43. For the same molecule, the IC50 (MS; MS, MTT, 72 h of treatment, read-out: IC50 Values (Mean ± SD)) was 16.5 ± 1.5 µM, the IC50 (MS; Table S1, MS, read-out: IC50 (mean ± SD)) was 16.5 ± 1.53 µM and the “Selectivity index (SI)” value (MS; ratio of IC50 values healthy (HEK293) / MS) was 0.70. The “activation of caspase-8” value (HBL-100/Dox cells) was “not observed”, the “activation of caspase-9” value (HBL-100/Dox cells) was “sequential activation of initiator caspase-9” and the “cytochrome c release” value (HBL-100/Dox cells) was “provoked the release of cytochrome c from mitochondria to cytosol”. For the same molecule, the IC50 (HEpG2; HEpG2, MTT, 72 h of treatment, read-out: IC50 Values (Mean ± SD)) was 16.6 ± 0.4 µM, the IC50 (HEpG2; Table S1, HEpG2, read-out: IC50 (mean ± SD)) was 16.6 ± 0.41 µM and the “Selectivity index (SI)” value (HEpG2; ratio of IC50 values healthy (HEK293) / HEpG2) was 0.69. The “gMIF, Active Caspase-3” value ([2]; dose 2×IC50) was 19252±347, the “gMIF, Active Caspase-3” value ([2]; dose IC50) was 13428±202 and the “caspase-3 activation in comparison to the HBL-100 cells” value ([2]; after 24 h of MK treatment) was “doubly pronounced”. For the same molecule, the IC50 (PC-3; PC-3, MTT, 72 h of treatment, read-out: IC50 Values (Mean ± SD)) was 10.4 ± 1.3 µM, the IC50 (PC-3; Table S1, PC-3, read-out: IC50 (mean ± SD)) was 10.3 ± 1.27 µM and the “Selectivity index (SI)” value (PC-3; ratio of IC50 values healthy (HEK293) / PC-3) was 1.11. For the same molecule, the “death of the cells” value (HBL-100; HBL-100, MK at IC50 dose, after 72 h exposure) was 50%, the IC50 (HBL-100; HBL-100, MTT, 72 h of treatment, read-out: IC50 Values (Mean ± SD)) was 1 ± 0.1 µM and the IC50 (HBL-100; Table S1, HBL-100, read-out: IC50 (mean ± SD)) was 0.99 ± 0.001 µM. For the same molecule, the “Selectivity index (SI)” value (HBL-100; ratio of IC50 values healthy (HEK293) / HBL-100) was 11.50, the “mitochondrial membrane potential (MMP), TMRE fluorescence intensity” value (HBL-100 cells [3]; 16 h, vs untreated control) was “significant (p < 0.05) reduction in MMP” and the “number of cells with nuclear morphology changes” value (HBL-100 cells [3]; Hoechst 33342, 16 h, IC50 values (MK 1.0 µM)) was 21.2%.
